US9096605B2, “Pyrazolopyrimidine derivatives as PI3 kinase inhibitors” (GlaxoSmithKline LLC, priority 2011, dated 2015)
Where a name gives a salt, the structure may show the parent alone.

What was measured:
[1] = test system: pAKT(Ser473) in MDA-MB-468 cells; experiment: pAKT(Ser473) assay in MDA-MB-468 cells; type: cell-based; conditions: Homo sapiens, 0.5 h, compound treatment 30 minutes, MSD ELISA phospho AKT(Ser473), given as ranges, read-out: Cell Activity—pAKT IC50 in MDA-MB-468
Method: pAKT(Ser473) Assay in MDA-MB-468 Cells
MDA-MB-468 cells were plated in 384-well flat clear bottom tissue culture plates (Corning #3701) at a density of 5000 cells per 0.057 cm2 in 48 ul of RPMI 1640 media supplemented with 10% fetal bovine serum (FBS). Cells were seeded with a Wellmate liquid handler (Matrix). Columns 1 through 23 were plated with cells and column 24 contained media alone. Cells were incubated at 37° C. with 5% CO2 for approximately 16-20 hours. Duplicate compound plates were prepared in 384-well polypropylene V-Bottom plates (Greiner #781280).
Compound titrations were made across the columns (A1-A20). 20 ul of compound was added to the first column and diluted into a 20 point curve with dimethylsulfoxide (DMSO, Thermo #TS2064) using a 2-fold dilution factor with a liquid handling robot (Hamilton). Columns 22 through 24 contained DMSO alone. Titrations were diluted 682-fold for compound treatment with 4 ul of compound added to 105 ul of RPMI media. Two ul of the diluted compound was added to the cell plates containing 48 ul of media using a multimek robot (Beckman Coulter). Final DMSO concentrations were 0.15%. Cells were treated with compound for 30 minutes at 37° C. with 5% CO2.
Following incubation, media was aspirated from dosed cell plates using an ELx405 plate washer (Bio-Tek) and 25 ul of 4° C. Meso Scale Discovery (MSD) lysis buffer with the addition of protease and phosphatase inhibitors (supplied in MSD kit #N31CB-1) was added to each well using a multidrop combi (Thermo). Precoated 4-spot per well MSD ELISA plates coated with total and phospho AKT(Ser473) antibody and BSA (supplied in kit) were blocked for 1 hour at room temperature with 35 ul per well of 1× MSD wash buffer+3% BSA (supplied in kit).
Blocked plates were washed 4 times with 100 ul per well of 1× Tris wash buffer (supplied in MSD kit) using an Elx405 plate washer (Bio-Tek). To each well, 20 ul of cell lysate was added using a multimek robot (Beckman Coulter) and the plate incubated at 4° C. overnight (˜12-24 hours). Following incubation, the ELISA plates were washed 4 times (100 ul/well) with 1× Tris wash buffer. Twenty microliters per well of 1× detection antibody (supplied in MSD kit) was added using a multidrop combi (Thermo), followed by a 2 hour incubation at room temperature. Detection antibody was aspirated and the plates washed 4 times (100 ul/well) with 1× Tris wash buffer. Read Buffer (supplied in MSD kit) was added at 1× (35 ul/well) at room temperature using a multidrop (Thermo). Relative luminescence units (RLU) were determined using a SECTOR™ Imager 6000 with MSD Workbench Software.
Concentration Response Curves for pAKT(Ser473):
For analysis of the pAKT(Ser473) concentration response curves, the data was normalized using Phospho AKT values divided by the sum of corresponding Total AKT and Phospho AKT values. The normalized values are plotted as the percent of the DMSO-treated control values on the corresponding plate. To determine IC50 values, the data is fit to a 4 parameter nonlinear sigmoidal dose response (variable slope) using GraphPad Prism version 4 for Windows, (GraphPad Software, San Diego Calif. USA). Criteria for curve fitting and IC50 determination include that the IC50 values from duplicate runs must be within 2 to 3-fold of each other, the Y min must be less than or equal to 30% of the DMSO-treated control and the Y max must range between 80-120%. Any data point equal to or greater than 40% of the curve was not utilized.

PI3K-beta = molecular target: T1, PI3K-beta (Homo sapiens, UniProt P42338); experiment: HTRF in vitro profiling assay for PI3K inhibition (beta isoform); type: biochemical; conditions: PI3K-beta enzyme pIC50 range, 200 pM enzyme, 100 uM ATP, 10 uM PIP2, 150 mM NaCl, corrected pIC50, read-out: PI3K-b Enz Activity
T1 construct: made in house
From the text: HTRF In Vitro Profiling Assays for PI3K Inhibition
The PI3-Kinase profiling assays were developed to measure the compound-dependent inhibition of the alpha, beta, delta, and gamma isoforms of PI3K in an in vitro catalytic assay. This assay was developed and optimized from a kit produced by Upstate (Millipore catalog #33-017). Briefly, this procedure utilizes a pre-formed HTRF (Homogeneous Time-Resolved Fluorescence energy transfer) complex between four binding partners: 1) biotinylated PIP3, 2) GST tagged pleckstrin homology (PH) domain, 3) Europium labeled anti-GST monoclonal antibody, and 4) Streptavidin-Allophycocyanin (APC). The native PIP3 produced by PI 3-Kinase activity displaces biotin-PIP3 from the PH domain, resulting in the dissociation of the HTRF complex and a decrease in the fluorescence signal. The format of this assay is the same for all 4 isoforms of PI3K; the differences lie in the concentration of enzyme used to achieve the most robust signal. The alpha and delta assays are run at 400 pM enzyme; the beta assay is at 200 pM enzyme and the gamma assay is run at 1 nM enzyme. In addition, the alpha, beta and delta assays are run with 150 mM NaCl while the gamma assay is run in the absence of NaCl. The ATP concentration is 100 uM in the alpha, beta, and delta assays and 15 uM ATP in the gamma assay. All reactions are run at 10 uM PIP2
Compounds are serially diluted (3-fold in 100% DMSO) across a 384-well polypropylene mother plate from column 1 to column 12 and column 13 to column 24, to yield 11 concentrations for each test compound. Columns 6 and 18 contain only DMSO. Once titrations are made, […] is transferred to a 384-well low-volume assay plate (Greiner 784076). This assay plate contains three pharmacological controls (known PI3K inhibitors) and 3 assay controls: (1) Enzyme without inhibitor; (2) Buffer minus enzyme, and (3) Buffer minus enzyme plus native PIP3. DMSO is stamped into all wells of columns 6 and 18. PIP3 is added at 40 μM in 1× Reaction buffer (1 μL of 200 μM PIP3) to alternating rows of column 18 (wells 18 B, D, F, H, J, L, N, P). The no-enzyme control reactions are run in wells 18 A, C, E, G, I, K, M, O (0.1 μL of 100% DMSO).
The PI3-Kinase profiling assay was optimized using the HTRF kit provided by Upstate (Millipore). The assay kit contains seven reagents: 1) 4× Reaction Buffer; 2) native PIP2 (substrate); 3) Stop A (EDTA); 4) Stop B (Biotin-PIP3); 5) Detection Mix A (Streptavidin-APC); 6) Detection Mix B (Eu-labeled Anti-GST plus GST-tagged PH-domain); 7) Detection Mix C (KF). In addition, the following items were obtained or purchased: PI3Kinase (prepared by GSK BR&AD), dithiothreitol (Sigma, D-5545), Adenosine-5′-triphosphate (ATP, Teknova cat. # A0220), native PIP3 (1,2-dioctanoyl-sn-glycero-3-[phosphoinositil-3,4,5-triphosphate]tetraammonium salt (Avanti polar lipids, 850186P), DMSO (Sigma, 472301).
PI3Kinase Reaction Buffer is prepared by diluting the stock 1:4 with de-ionized water. Freshly prepared DTT is added at a final concentration of 5 mM on the day of use. Enzyme addition and compound pre-incubation are initiated by the addition of 2.5 μL of PI3K (at twice its final concentration) in 1× reaction buffer to all wells using a Multidrop Combi. Plates are incubated at room temperature for 15 minutes. Reactions are initiated by addition of 2.5 μL of 2× substrate solution (PIP2 and ATP in 1× reaction buffer) using a Multidrop Combi. Plates are incubated at room temperature for one hour. Reactions are quenched by the addition of 2.5 μL of stop solution (Stop A and Stop B pre-mixed at a ratio of 5:1, respectively) to all wells using the Multidrop Combi. […]

T1 sequence (P42338 whole entry, canonical isoform): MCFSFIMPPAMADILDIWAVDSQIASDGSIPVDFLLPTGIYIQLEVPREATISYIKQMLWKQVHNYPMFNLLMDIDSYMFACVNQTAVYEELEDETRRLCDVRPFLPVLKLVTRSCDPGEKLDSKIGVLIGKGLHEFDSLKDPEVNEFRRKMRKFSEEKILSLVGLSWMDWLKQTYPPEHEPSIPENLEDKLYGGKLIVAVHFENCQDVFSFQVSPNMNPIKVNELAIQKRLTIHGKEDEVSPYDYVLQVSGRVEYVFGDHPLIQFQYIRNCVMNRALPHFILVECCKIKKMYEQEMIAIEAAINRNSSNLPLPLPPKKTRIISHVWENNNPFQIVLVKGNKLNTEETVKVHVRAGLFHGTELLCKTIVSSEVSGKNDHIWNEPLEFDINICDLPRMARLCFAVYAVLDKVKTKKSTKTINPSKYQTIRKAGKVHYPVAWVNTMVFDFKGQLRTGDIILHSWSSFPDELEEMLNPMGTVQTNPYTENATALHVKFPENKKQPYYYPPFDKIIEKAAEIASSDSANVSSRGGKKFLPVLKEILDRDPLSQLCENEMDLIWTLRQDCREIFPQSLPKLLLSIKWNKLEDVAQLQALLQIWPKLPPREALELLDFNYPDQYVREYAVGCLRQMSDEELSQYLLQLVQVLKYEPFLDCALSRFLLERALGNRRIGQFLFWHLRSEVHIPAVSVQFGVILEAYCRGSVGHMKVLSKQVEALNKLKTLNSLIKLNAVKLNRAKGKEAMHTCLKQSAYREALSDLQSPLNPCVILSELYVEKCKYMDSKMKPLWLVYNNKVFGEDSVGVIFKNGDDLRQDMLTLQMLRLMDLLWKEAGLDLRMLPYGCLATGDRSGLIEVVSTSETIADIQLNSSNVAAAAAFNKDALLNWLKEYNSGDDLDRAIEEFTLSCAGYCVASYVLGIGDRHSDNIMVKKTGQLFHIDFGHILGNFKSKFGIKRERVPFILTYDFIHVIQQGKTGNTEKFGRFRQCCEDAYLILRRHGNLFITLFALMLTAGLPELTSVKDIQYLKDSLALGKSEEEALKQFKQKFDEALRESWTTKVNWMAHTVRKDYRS
T1 sequence (P27986 whole entry partner, canonical isoform): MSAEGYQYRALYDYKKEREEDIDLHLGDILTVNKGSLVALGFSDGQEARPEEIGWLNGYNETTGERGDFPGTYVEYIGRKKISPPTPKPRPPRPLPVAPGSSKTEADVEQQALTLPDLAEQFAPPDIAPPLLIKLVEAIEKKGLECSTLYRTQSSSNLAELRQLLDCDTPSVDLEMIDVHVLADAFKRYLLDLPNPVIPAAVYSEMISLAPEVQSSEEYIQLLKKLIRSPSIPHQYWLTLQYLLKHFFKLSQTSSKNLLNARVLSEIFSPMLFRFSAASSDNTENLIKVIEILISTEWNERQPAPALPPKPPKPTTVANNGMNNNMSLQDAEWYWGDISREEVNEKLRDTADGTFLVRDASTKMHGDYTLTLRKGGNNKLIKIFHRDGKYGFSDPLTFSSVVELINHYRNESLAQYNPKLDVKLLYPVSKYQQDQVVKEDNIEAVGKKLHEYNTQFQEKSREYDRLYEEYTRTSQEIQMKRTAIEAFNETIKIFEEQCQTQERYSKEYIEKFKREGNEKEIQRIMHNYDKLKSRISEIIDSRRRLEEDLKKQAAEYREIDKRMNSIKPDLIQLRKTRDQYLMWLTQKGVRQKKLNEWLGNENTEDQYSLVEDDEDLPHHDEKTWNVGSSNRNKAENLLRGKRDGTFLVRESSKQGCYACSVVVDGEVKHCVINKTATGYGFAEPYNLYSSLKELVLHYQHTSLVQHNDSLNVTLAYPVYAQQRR

| SMILES | IC50 [1] | IC50 (PI3K-beta) |
| --- | --- | --- |
| Cc1c(Cc2cnn3c(O)cc(-c4ccncc4)nc23)cccc1C(F)(F)F [Example 13, 3-(2-methyl-3-(trifluoromethyl)benzyl)-5-(pyridin-4-yl)pyrazolo[1,5-a]pyrimidin-7-ol] | 1000 to 5000 nM | 1.26 to 10 nM |
| Cc1cccc(Cc2cnn3c(O)cc(-c4ccncc4)nc23)c1C [Example 14, 3-(2,3-dimethylbenzyl)-5-(pyridin-4-yl)pyrazolo[1,5-a]pyrimidin-7-ol] | 1000 to 5000 nM | 1.26 to 10 nM |
| CCc1nn2c(O)cc(C3CCOCC3)nc2c1Cc1cccc(Cl)c1Cl [Example 15, 3-(2,3-dichlorobenzyl)-2-ethyl-5-(tetrahydro-2H-pyran-4-yl)pyrazolo[1,5-a]pyrimidin-7-ol] | > 20000 nM | 1.26 to 10 nM |
| Cc1nn2c(NC(N)=O)cc(N3CCOCC3)nc2c1Cc1cccc(C(F)(F)F)c1C [Example 16, 1-(2-methyl-3-(2-methyl-3-(trifluoromethyl)benzyl)-5-morpholinopyrazolo[1,5-a]pyrimidin-7-yl)urea] | > 20000 nM | 12.6 to 100 nM |
| Cc1nn2c(N)cc(N3CCOCC3)nc2c1Cc1cccc(C(F)(F)F)c1C [Example 17, 2-methyl-3-(2-methyl-3-(trifluoromethyl)benzyl)-5-morpholinopyrazolo[1,5-a]pyrimidin-7-amine] | < 1000 nM | 12.6 to 100 nM |
| Cc1c(Cc2c(O)nn3c(O)cc(C4CCOCC4)nc23)cccc1C(F)(F)F [Example 19, 3-(2-methyl-3-(trifluoromethyl)benzyl)-5-(tetrahydro-2H-pyran-4-yl)pyrazolo[1,5-a]pyrimidine-2,7-diol] | > 20000 nM | 12.6 to 100 nM |
| Nc1cc(N2CCOCC2)nc2c(Cc3cccc(Cl)c3Cl)cnn12 [Example 20, 3-(2,3-dichlorobenzyl)-5-morpholinopyrazolo[1,5-a]pyrimidin-7-amine] | < 1000 nM | 12.6 to 100 nM |
| Oc1nn2c(O)cc(-c3ccncc3)nc2c1Cc1ccccc1Cl [Example 21, 3-(2-chlorobenzyl)-5-(pyridin-4-yl)pyrazolo[1,5-a]pyrimidine-2,7-diol] | > 20000 nM | 126 to 1260 nM |
| Cc1nn2c(O)cc(N3CCOCC3)nc2c1Cc1cccc2ccccc12 [Example 22, 2-methyl-5-morpholino-3-(naphthalen-1-ylmethyl)pyrazolo[1,5-a]pyrimidin-7-ol] | 1000 to 5000 nM | 0.126 to 1 nM |
| Nc1nn2c(O)cc(N3CCOCC3)nc2c1Cc1cccc2ccccc12 [Example 23, 2-amino-5-morpholino-3-(naphthalen-1-ylmethyl)pyrazolo[1,5-a]pyrimidin-7-ol] | < 1000 nM | 0.126 to 1 nM |
| Cc1c(Cc2c(N)nn3c(O)cc(N4CCOCC4)nc23)cccc1C(F)(F)F [Example 24, 2-amino-3-(2-methyl-3-(trifluoromethyl)benzyl)-5-morpholinopyrazolo[1,5-a]pyrimidin-7-ol] | < 1000 nM | 1.26 to 10 nM |
| Cc1c(Cc2c(N)nn3c(O)cc(C4CCOCC4)nc23)cccc1C(F)(F)F [Example 25, 2-amino-3-(2-methyl-3-(trifluoromethyl)benzyl)-5-(tetrahydro-2H-pyran-4-yl)pyrazolo[1,5-a]pyrimidin-7-ol] | < 1000 nM | 1.26 to 10 nM |
| Nc1nn2c(O)cc(C3CCOCC3)nc2c1Cc1cccc(Cl)c1Cl [Example 26, 2-amino-3-(2,3-dichlorobenzyl)-5-(tetrahydro-2H-pyran-4-yl)pyrazolo[1,5-a]pyrimidin-7-ol hydrochloride] | 1000 to 5000 nM | 1.26 to 10 nM |
| Cc1nn2c(N)cc(N3CCOCC3)nc2c1Cc1cccc2ccccc12 [Example 27, 2-methyl-5-morpholino-3-(naphthalen-1-ylmethyl)pyrazolo[1,5-a]pyrimidin-7-amine] | < 1000 nM | 12.6 to 100 nM |
| Cc1ccccc1Cc1c(C)nn2c(O)cc(-c3ccncc3)nc12 [Example 29, 2-methyl-3-(2-methylbenzyl)-5-(pyridin-4-yl)pyrazolo[1,5-a]pyrimidin-7-ol] | 1000 to 5000 nM | 1.26 to 10 nM |
| Cc1nn2c(O)cc(-c3ccncc3)nc2c1Cc1cccc(Cl)c1Cl [Example 30, 3-(2,3-dichlorobenzyl)-2-methyl-5-(pyridin-4-yl)pyrazolo[1,5-a]pyrimidin-7-ol] | 6000 to 10000 nM | 0.126 to 1 nM |
| CCc1nn2c(O)cc(-c3ccncc3)nc2c1Cc1cccc(Cl)c1Cl [Example 31, 3-(2,3-dichlorobenzyl)-2-ethyl-5-(pyridin-4-yl)pyrazolo[1,5-a]pyrimidin-7-ol] | > 20000 nM | 0.126 to 1 nM |
| Oc1cc(-c2ccncc2)nc2c(Cc3cccc(Cl)c3Cl)c(C(F)(F)F)nn12 [Example 32, 3-(2,3-dichlorobenzyl)-5-(pyridin-4-yl)-2-(trifluoromethyl)pyrazolo[1,5-a]pyrimidin-7-ol] | 11000 to 20000 nM | 1.26 to 10 nM |
